Data from patent US20120232062A1, “AZAINDAZOLES TO TREAT FLAVIVIRIDAE VIRUS INFECTION” (EIGER BIOPHARMACEUTICALS, INC., priority 2009, published 2012).

Test system: Caco-2 cell line
Assay: Caco-2 permeability testing
Type: in vitro ADME, human
Design: Efflux (first figure of Efflux/permeability), Papp (B-A) / Permeability (second figure of Efflux/permeability), Papp (A-B): unit not given here
Settings: for intestinal absorption predicted by in vitro PK profiles: in words; for Permeability (second figure of Efflux/permeability), Papp (A-B): Caco-2, A-B; for Permeability (second figure of Efflux/permeability), Papp (A-B) / Efflux (first figure of Efflux/permeability), Papp (B-A): 90 min; for Efflux (first figure of Efflux/permeability), Papp (B-A): Caco-2, B-A
Summary of the method: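 Caco-2 monolayers grown 21-27 days in MEM + 10% FBS + 1% NEAA; bidirectional transport (A-B, B-A) in HBSS with 25 mM HEPES, pH 7.4, 10 μM compound donor with 5 μM Lucifer Yellow as monolayer marker. Papp measured each direction, quantified against standard curve with internal standard; efflux ratio Papp(B-A)/Papp(A-B).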

Row | SMILES | intestinal absorption predicted by in vitro PK profiles | Permeability (second figure of Efflux/permeability), Papp (A-B) | Efflux (first figure of Efflux/permeability), Papp (B-A) | Efflux/Permeability ratio (desired <3) (Caco-2, Papp (B-A)/Papp (A-B))
1 | CC(C)N1CCC(NC(=O)c2nn(C)c3nc(N4CCCCCC4)ccc23)CC1 [EBP1604] | moderate intestinal absorption |  |  | 
2 | Cn1nc(C(=O)NC2CCN(CCN3CCCC3)CC2)c2ccc(N3CCCCCC3)nc21 [EBP1597] | moderate intestinal absorption | 9 | 7 | 
3 | CCN1CCC(NC(=O)c2nn(C)c3nc(N4CCCCCC4)ccc23)CC1 [EBP1595] | moderate intestinal absorption | 15 | 14 | 
4 | Cn1nc(C(=O)NC2CCN(CCN3CCCCC3)CC2)c2ccc(N3CCCCCC3)nc21 [EBP1047] | moderate intestinal absorption | 11 | 8 | 0.8
